Test system: Arabidopsis PR1 promoter
Experiment: GUS florescence assay of promoter::GUS plants after SA application, Arabidopsis PR1 promoter
Assay type: in vivo
Conditions: 5 mM SA spray
Excerpt: A binary promoter::reporter plasmid (pNOV2374) for Arabidopsis transformation was constructed. The regulatory/promoter sequence was fused to the GUS reporter gene (Jefferson et al. (1987) EMBO J 6: 3901-3907) by recombination using […] Technology according to the manufacturer's protocol as described in the Instruction Manual (LifeTechnologies, Rockville, Md.). The construct was then transformed into Agrobacterium tumefaciens strains by electroporation. pNOV2374 is a binary vector with a VS1 origin of replication, a copy of the Agrobacterium virg gene in the backbone, and a Basta® resistance selectable marker cassette between the left and right border sequences of the T-DNA. The Basta® selectable marker cassette comprises the Agrobacterium tumefaciens manopine synthase promoter (AtMas) (Barker et al., Plant Mol. Biol. 2, 335-350 (1983)) operably linked to the gene encoding Basta® resistance (i.e., the “BAR” gene, phosphinothricin acetyl transferase) (White et al., Nucl Acids Res 18: 1062 (1990)) and the 35S terminator. The AtMas promoter, the BAR coding sequence, and the 35S terminator are located at nt 4211 to nt 4679, nt 4680 to nt 5228, and nt 5263 to nt 5488, respectively, of pNOV2374. The vector contains […] recombination components, which were introduced into the binary vector backbone by ligating a blunt-ended cassette containing attR sites, ccdB, and a cholramphenicol resistance marker using the […] Vector Conversion System (LifeTechnologies, Rockville, Md.). The […] cassette was located between nt 126 and 1818 of pNOV2374. The promoter cassettes were inserted through an LR recombination reaction whereby the DNA sequence of pNOV2374 between nt 126 and nt 1818 were removed and replaced with the promoter of interest flanked by att sequences. […] The GIG gene (SEQ ID NO:29) contains the ST-LS1 intron from Solanum tuberosum at nt 385 to nt 576 of GUS (obtained from Dr. Stanton […], Purdue University, and described in Narasimhulu, et al. (1996) Plant Cell 8: 873-886.). The orientation of the selectable marker and promoter-reporter cassettes in the binary vector construct was as follows: For the purpose of comparing promoter activity, additional constructs were produced with the known Arabidopsis PR1 (SEQ ID NO:30) and SMAS (SEQ ID NO:31) promoters (see Plant J. 16 (2) 223-233 (1998) and Plant Mol. Biol. 20 (2) 219-233 (1992), respectively) operatively linked to the GIG gene (SEQ ID NO:29) and the […]. […] The treatment was applied as a fine mist to the leaves. […] For quantitative analysis of promoter activity following induction treatments or in various Arabidopsis tissues and organs, GUS expression is measured florometrically. Tissue samples were harvested and ground in ice cold GUS extraction buffer (50 mM Na2HPO4 pH 7.0, 5 mM DTT, 1 mM Na2EDTA, 0.1% TritonX100, 0.1% sarcosyl). Ground samples were spun in a microfuge at 10,000 rpm for 15 minutes at 4° C. Following centrifugation, the supernatant was removed for the GUS assay and for a protein concentration determination. To measure GUS activity, the plant extract was assayed in GUS assay buffer (50 mM Na2HPO4 pH 7.0, 5 mM DTT, 1 mM Na2EDTA, 0.1% TritonX100, 0.1% sarcosyl, 1 mM 4-Methylumbelliferyl-beta-D-glucuronic acid dihydrate (MUG)), pre-warmed to 37° C. Reactions were incubated, and 100 uL aliquots were removed at 10 minute intervals over 30 minutes to stop the reaction by adding the 100 uL aliquots to tubes containing 900 uL of 2% Na2CO3. The stopped reactions were then read on a Tecan Spectroflourometer at 365 nm excitation and 455 emission wavelengths. Protein concentrations were determined using the BCA assay following the manufacturer's protocol. GUS activity is expressed as pmol MU/mg protein/min.

With `O=C(O)c1ccccc1O` [SA, salicylic acid] the “GUS Activity Induced by SA” value (2 h) was 57.7 pmol/mg protein/min, the “GUS activity Fold-change relative to T0 (uninduced)” value (2 h) was 3.4 fold and the “GUS Activity Induced by SA” value (4 h) was 254.7 pmol/mg protein/min. For the same compound, the “GUS activity Fold-change relative to T0 (uninduced)” value (4 h) was 15.2 fold, the “GUS Activity Induced by SA” value (8 h) was 206.5 pmol/mg protein/min and the “GUS Activity Induced by SA” value (24 h) was 393.1 pmol/mg protein/min. For the same compound, the “GUS activity Fold-change relative to T0 (uninduced)” value (24 h) was 23.4 fold.
